Measurements taken from patent publication US9446012B2, “Pharmaceutical compounds” (BIAL-PORTELA & CA, S.A., priority 2006, dated 2016).

How the values were obtained:
[1] = Brain levels of L-DOPA, 3-O-methyl-L-DOPA, dopamine, DOPAC and HVA in rats treated with L-DOPA plus benserazide; format: in vivo, rat
[2] = Treatment of Parkinson's disease patients on L-DOPA therapy; format: in vivo, human; conditions: tablets containing 50 mg
liver COMT = experiment: Liver COMT activity after oral administration (methylation of adrenaline to metanephrine in liver homogenates); format: in vivo, rat; conditions: FIG. 1; for inhibition of liver COMT / inhibition of liver COMT activity / time to maximal inhibitory effect on liver COMT: 3 mg/kg; for inhibition of liver COMT: 24 hours after administration; for inhibition of liver COMT activity: nine hours after administration
[3] = Plasma levels of L-DOPA and 3-O-methyl-L-DOPA in rats treated with L-DOPA plus benserazide; format: in vivo, rat; conditions: 3 mg/kg
[4] = 3 mg/kg, L-DOPA plus benserazide, all pre-treatment times (1, 7 and 24 h)
[5] = L-DOPA 12 mg/kg plus benserazide 3 mg/kg, all pre-treatment times (1, 7 and 24 h)
[6] = 3 mg/kg, administered 24 h in advance

Compound: Cc1nc(Cl)c(-c2noc(-c3cc(O)c(O)c([N+](=O)[O-])c3)n2)c(C)c1Cl [compound A, 5-[3-(2,5-dichloro-4,6-dimethylpyridin-3-yl)-[1,2,4]oxadiazol-5-yl]-3-nitrobenzene-1,2-diol]
- brain 3-O-methyl-L-DOPA [1, 4]: marked decrease
- brain DOPAC [1, 4]: significant increases
- brain L-DOPA [1, 4]: significant increases
- brain dopamine [1, 4]: significant increases
- clinical picture [2]: significant improvement
- inhibition of liver COMT (liver COMT): 60 % of control levels
- inhibition of liver COMT activity (liver COMT): 90 % of control levels
- time to maximal inhibitory effect on liver COMT (liver COMT; oral administration): ≤ 6 h
- inhibitor of liver COMT (in words) (liver COMT; oral administration): potent inhibitor
- circulating 3-O-methyl-L-DOPA [3, 5]: marked decrease
- plasma L-DOPA [3, 5]: significant increases

Compound: Cc1ccc(C(=O)c2cc(O)c(O)c([N+](=O)[O-])c2)cc1 [tolcapone, 3,4-dihydroxy-4′-methyl-5-nitrobenzophenone]
- brain levels of 3-O-methyl-L-DOPA [1, 6]: not affected
- brain levels of DOPAC [1, 6]: not affected
- brain levels of L-DOPA [1, 6]: not affected
- brain levels of dopamine [1, 6]: not affected
- steadiness of brain delivery of L-DOPA ([1]; rat, in vivo): marked oscillations
- inhibition of liver COMT (liver COMT): almost devoid of COMT inhibitory properties
- time to maximal inhibitory effect on liver COMT (liver COMT; after administration): ≤ 0.5 h
- inhibition of liver COMT activity (liver COMT): minimal inhibitory effects
- 3-O-methyl-L-DOPA plasma levels ([3]; 2 and 7 h after administration): Significant changes
- L-DOPA plasma levels ([3]; 2 and 7 h after administration): Significant changes
- plasma levels of 3-O-methyl-L-DOPA ([3]; administered 24 h in advance): not affected
- plasma levels of L-DOPA ([3]; administered 24 h in advance): not affected
